This is an account of results in ChEMBL document CHEMBL1201862, “PubChem BioAssay data set” (2004).

Some test systems named below: BT-549; HCC 2998; HCT-15; HL-60; HT-29; IGROV-1; K562; LOX IMVI; MCF7; MDA-MB-435; MDA-N; NCI-H226; NCI-H522; NCI/ADR-RES; PC-3; RPMI-8226; SK-MEL-28; SK-MEL-2; SNB-75; SW-620.
Experiment in all cases: growth of human tumour cells (NCI), 48 h

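48-hour exposure; five concentrations; linearly interpolated endpoints. Here, GI50 denotes the concentration required for 50% inhibition of growth.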 The source made the active and inactive calls. Rule as the data show it: active = GI50 up to about 1.1 µM and inactive = higher. Bounds are passed on as bounds.

Regarding `CCCOC(=O)c1cc(O)c(O)c(O)c1` [PROPYL GALLATE], the GI50 with BT-549 is 43.8 µM (inactive); in the assay with HCC 2998, 45.1 µM (inactive); with HCT-15 it was 20.7 µM; in the assay on HL-60, > 100 µM (inactive); in the assay with HT-29 it was 32.2 µM (inactive); in the assay with IGROV-1, 31.3 µM (inactive). Besides, the GI50 is > 100 µM (inactive) in the assay on K562; 16.1 µM (inactive) in the assay with LOX IMVI; 42 µM (inactive) in the assay with MCF7; 19.3 µM (inactive) in the assay with MDA-MB-435; 14.7 µM (inactive) in the assay with MDA-N; 17.7 µM (inactive) in the assay with NCI-H226. The GI50 is 8.2 µM (inactive) in the assay with NCI-H522; 26.5 µM (inactive) with NCI/ADR-RES; 18.7 µM (inactive) in the assay with PC-3; > 100 µM (inactive) in the assay with RPMI-8226; 43.8 µM (inactive) in the assay on SK-MEL-28; 28.1 µM (inactive) in the assay with SK-MEL-2. For the same compound, the GI50 was 40.3 µM (inactive) with SNB-75 and 51.3 µM (inactive) in the assay with SW-620.
For the compound `c1ccc2c(c1)[n-]n1c3ccc4nonc4c3n[n+]21`, the GI50 in the assay with BT-549 was > 100 µM (inactive); in the assay on HCC 2998 it was > 100 µM (inactive); in the assay on HCT-15, over 100 µM; in the assay with HL-60, > 100 µM (inactive); in the assay with HT-29, > 100 µM (inactive); with IGROV-1, > 100 µM (inactive). In addition, the GI50 with K562 was > 100 µM (inactive); with LOX IMVI, > 100 µM (inactive); in the assay with MCF7 it was 60.5 µM (inactive); in the assay with MDA-MB-435 it was > 100 µM (inactive); with MDA-N it was > 100 µM (inactive); in the assay with NCI-H226, > 100 µM (inactive). Further, the GI50 in the assay with NCI-H522, with NCI/ADR-RES, in the assay with PC-3, with RPMI-8226, in the assay with SK-MEL-28 and in the assay with SK-MEL-2 was > 100 µM (inactive) throughout. In addition, the figures for the GI50 with SNB-75 and in the assay on SW-620 were 56.1 µM (inactive) and > 100 µM (inactive), respectively.
In the case of `CNC(=O)N(CCC#N)CCCN(C(=O)N(C)C)c1ccccc1`, the GI50 with BT-549 is > 100 µM (inactive); with HCC 2998, > 100 µM (inactive); in the assay on HCT-15, over 100 µM; in the assay on HL-60 it was > 100 µM (inactive); in the assay on HT-29 it was > 100 µM (inactive); in the assay with IGROV-1 it was > 100 µM (inactive). The GI50 in the assay with K562, with LOX IMVI, in the assay with MCF7, with MDA-MB-435, in the assay on MDA-N and with NCI-H226 was > 100 µM (inactive) throughout. For the same compound, the GI50 in the assay with NCI-H522, in the assay on NCI/ADR-RES, with PC-3, in the assay on RPMI-8226, in the assay on SK-MEL-28 and in the assay on SK-MEL-2 was > 100 µM (inactive) in each case. For the same compound, the GI50 in the assay on SNB-75 and with SW-620 was > 100 µM (inactive) throughout.
As for `O=C1Nc2nccnc2C(=O)N2CCC[C@@H]12`, the GI50 in the assay on BT-549 is > 100 µM (inactive); in the assay on HCC 2998, > 100 µM (inactive); with HCT-15, over 100 µM; with HL-60, > 100 µM (inactive); in the assay on HT-29, > 100 µM (inactive); in the assay with IGROV-1, > 100 µM (inactive). The GI50 in the assay on K562, with LOX IMVI, in the assay on MCF7, with MDA-MB-435, with MDA-N and in the assay on NCI-H226 was > 100 µM (inactive) throughout. The GI50 in the assay on NCI-H522, in the assay with NCI/ADR-RES, in the assay on PC-3, in the assay with RPMI-8226, in the assay on SK-MEL-28 and with SK-MEL-2 was > 100 µM (inactive) in each case. Besides, the GI50 in the assay with SNB-75 and with SW-620 was > 100 µM (inactive) throughout.
With `CC(C)C[C@H](NC(=O)[C@H](Cc1cccc2ccccc12)NC(=O)N1CCOCC1)B(O)O`, the GI50 in the assay on BT-549 was < 0.01 µM (active); in the assay on HCC 2998, < 0.01 µM (active); in the assay on HCT-15, under 0.0202 µM; in the assay on HL-60, < 0.01 µM (active); with HT-29, < 0.01 µM (active); in the assay on IGROV-1, < 0.01 µM (active). Moreover, the GI50 in the assay with K562 was < 0.01 µM (active); in the assay on LOX IMVI, < 0.01 µM (active); with MCF7, < 0.0444 µM (active); with MDA-MB-435, < 0.01 µM (active); in the assay with MDA-N, < 0.01 µM (active); with NCI-H226, 0.000104 µM (active). Also, the GI50 with NCI-H522 is < 0.01 µM (active); in the assay on NCI/ADR-RES, 0.149 µM (active); in the assay on PC-3, < 0.0108 µM (active); in the assay with RPMI-8226 it was < 0.01 µM (active); in the assay on SK-MEL-28, < 0.01 µM (active); in the assay on SK-MEL-2 it was < 0.01 µM (active). Further, the GI50 is < 0.01 µM (active) with SNB-75 and 0.000776 µM (active) in the assay with SW-620.
In the case of `CCCCCCN(CCCCCC)C(=S)N/N=C(\C)c1ccccn1`, the GI50 is 1.68 µM (inactive) in the assay with BT-549; 1.61 µM (inactive) in the assay with HCC 2998; 0.581 µM in the assay with HCT-15; 0.0767 µM (active) in the assay with HL-60; 1.51 µM (inactive) in the assay on HT-29; 0.955 µM (active) in the assay with IGROV-1. Also, the GI50 in the assay on K562 was 0.105 µM (active); in the assay on LOX IMVI, 0.838 µM (active); in the assay on MCF7, 1.53 µM (inactive); with MDA-MB-435, 0.708 µM (active); in the assay on MDA-N, 1.32 µM (inactive); with NCI-H226 it was 0.622 µM (active). In addition, the GI50 in the assay with NCI-H522 is 0.527 µM (active); with NCI/ADR-RES, 1.37 µM (inactive); in the assay on PC-3, 0.265 µM (active); in the assay on RPMI-8226 it was 0.117 µM (active); with SK-MEL-28 it was 1.04 µM (active); in the assay on SK-MEL-2, 1.06 µM (active). Besides, the GI50 in the assay on SNB-75 is 0.577 µM (active); in the assay on SW-620 it was 0.718 µM (active).
`COC(=O)C1(Cc2ccc3c(c2)CCC3)Cc2cc3c(cc2C1)CCC3`: the GI50 is 42.7 µM (inactive) with BT-549; 27.2 µM (inactive) in the assay on HCC 2998; 31.6 µM in the assay on HCT-15; 36.9 µM (inactive) in the assay on HL-60; 22.5 µM (inactive) with HT-29; 80 µM (inactive) in the assay on IGROV-1. Moreover, the GI50 with K562 was 30.5 µM (inactive); with LOX IMVI, 18.7 µM (inactive); in the assay on MCF7, 22.5 µM (inactive); in the assay on MDA-MB-435, 39 µM (inactive); with MDA-N, 40.6 µM (inactive); in the assay with NCI-H226, 33.7 µM (inactive). Besides, the GI50 with NCI-H522 was 22.1 µM (inactive); in the assay on NCI/ADR-RES, 59.8 µM (inactive); with PC-3, 46 µM (inactive); with RPMI-8226, 53 µM (inactive); with SK-MEL-28, 60.1 µM (inactive); in the assay on SK-MEL-2 it was 19.9 µM (inactive). The GI50 in the assay with SNB-75 is 46.6 µM (inactive); with SW-620, 75.7 µM (inactive).
Turning to `O=C(Nc1ccn(C2CCC(CO)O2)c(=O)n1)c1ccccc1` (stereo not given), the GI50 is > 100 µM (inactive) in the assay on BT-549; > 100 µM (inactive) with HCC 2998; over 100 µM with HCT-15; > 100 µM (inactive) with HL-60; > 100 µM (inactive) in the assay with HT-29; > 100 µM (inactive) in the assay with IGROV-1. The GI50 in the assay with K562, in the assay with LOX IMVI, in the assay on MCF7, with MDA-MB-435, in the assay with MDA-N and with NCI-H226 was > 100 µM (inactive) in each case. The GI50 in the assay with NCI-H522, in the assay on NCI/ADR-RES, in the assay with PC-3, in the assay with RPMI-8226, in the assay with SK-MEL-28 and in the assay on SK-MEL-2 was > 100 µM (inactive) each time. The GI50 in the assay with SNB-75 was 79.6 µM (inactive); in the assay on SW-620, > 100 µM (inactive).
As to `O=C1c2ccccc2-[n+]2ccc3c([nH]c4ccccc43)c21` [FASCAPLYSIN CHLORIDE], the GI50 with BT-549 is 2.26 µM (inactive); with HCC 2998, 0.19 µM (active); with HCT-15, 0.851 µM; with HL-60, 0.404 µM (active); in the assay on HT-29, 0.37 µM (active); in the assay with IGROV-1, 0.196 µM (active). For the same compound, the GI50 in the assay with K562 was 0.925 µM (active); with LOX IMVI it was 0.245 µM (active); with MCF7 it was 0.184 µM (active); with MDA-MB-435, 0.179 µM (active); with MDA-N, 0.191 µM (active); in the assay on NCI-H226, 0.964 µM (active). Moreover, the GI50 in the assay with NCI-H522 was 0.49 µM (active); in the assay on NCI/ADR-RES, 1.21 µM (inactive); in the assay with PC-3 it was 0.269 µM (active); in the assay with RPMI-8226, 0.186 µM (active); in the assay on SK-MEL-28, 0.34 µM (active); with SK-MEL-2, 0.226 µM (active). The values for the GI50 in the assay on SNB-75 and in the assay on SW-620 were 0.452 µM (active) and 0.296 µM (active), respectively.
As for `CCOC(=O)CCC(NC(=O)c1ccc(OCc2ccc3nc(-c4ccccc4)c(Cl)nc3c2)cc1)C(=O)OCC` (stereo not given), the GI50 was 22.3 µM (inactive) in the assay with BT-549; > 31.6 µM (inactive) in the assay with HCC 2998; over 31.6 µM in the assay with HCT-15; 7.29 µM (inactive) with HL-60; > 31.6 µM (inactive) with HT-29; 22.1 µM (inactive) in the assay on IGROV-1. For the same compound, the GI50 was 3.88 µM (inactive) in the assay on K562; > 100 µM (inactive) with LOX IMVI; 27.4 µM (inactive) in the assay with MCF7; > 31.6 µM (inactive) in the assay on MDA-MB-435; > 100 µM (inactive) in the assay on MDA-N; 19.2 µM (inactive) in the assay with NCI-H226. The GI50 in the assay with NCI-H522 was 17.4 µM (inactive); in the assay on NCI/ADR-RES it was 16.7 µM (inactive); with PC-3, 7.4 µM (inactive); in the assay on RPMI-8226, 18.9 µM (inactive); in the assay on SK-MEL-28, > 31.6 µM (inactive); in the assay with SK-MEL-2, 12.4 µM (inactive). Moreover, the GI50 with SNB-75 was 16.8 µM (inactive); in the assay on SW-620, > 31.6 µM (inactive).
